Patent publication US8975417B2, “Pyrazolopyrrolidine derivatives and their use in the treatment of disease” (Novartis AG, priority 2013, dated 2015)
pIC50: −log10 of the molar value.

What was measured:
His-Brd4(44-477) = His-Brd4(44-477) (Homo sapiens (Human), UniProt O60885); assay: TR-FRET in-vitro binding assay for BRD4; details: biochemical
Outline: (§1)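 Assay buffer HEPES pH 7.5/NaCl/Tween20/BSA; protein solution 45 nM, peptide solution 60 nM acetyl-H4 (AcK5,8,12,16). Incubated 30 °C for 35 min; Eu-anti-His6 and SA-APC detection, TR-FRET read.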

K-562 cells = assay: Cell growth inhibition assay (CellTiter-Glo), K-562; format: cell-based, human; details: Homo sapiens, K562, read-out: K-562 TGI
Outline: (§2)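 Dose-response over 3-fold dilutions from 10 μM; 0.1% DMSO control. Endpoint: CellTiter-Glo ATP signal, background-subtracted and day 0-corrected.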

[1] = target: nuclear BRD4-NUT foci in HCC2494 NUT midline carcinoma cells (Homo sapiens (Human), UniProt O60885+Q86Y26); assay: Nut-foci formation assay; format: cell-based; details: 24 hours, read-out: HCS Brd4-NUT IC50
Description: HCC2494 NUT midline carcinoma cells (expressing BRD4-NUT-fusion) were obtained from the University of Texas Southwestern and cultured in RPMI-1640 medium containing 10% Foetal Calf Serum at 37° C. in a humidified 5% CO2 incubator.
Compound-mediated inhibition of BRD4 activity was monitored by quantification of the number and intensity of nuclear BRD4-NUT foci using automated immunofluorescence microscopy. Briefly, 5000 cells in 20 μL fresh medium were seeded into Poly-D-Lysine-precoated 384-well plates and incubated overnight at 37° C. and 5% CO2, followed by addition of 5 μl medium containing compound dilutions at 5-fold their final intended concentration. Dose-response effects were assessed by 3-fold serial dilutions of the test compound, starting at 10 μM. Following incubation of the cells for 24 hours at 37° C. and 5% CO2, the cells were fixed by incubation with 3.7% formaldehyde for 10 min, followed by immunofluorescence staining using rabbit anti-NUT (Cell Signaling Technologies, Cat#3625) as primary, and AlexaFluor488-labeled goat anti-rabbit (Invitrogen, Cat#A11008) as secondary antibody (latter complemented with 1 μg/mL Hoechst33342 as DNA dye). Assay plates were imaged using the appropriate filter sets on the Cellomics VTi automated fluorescence microscopy platform (ThermoFisher Scientific) and the population average of the number of NUT-foci per nucleus is quantified using the Cellomics Spot Detection BioApplication image analysis algorithm (ThermoFisher Scientific). The effect of a particular test compound concentration on NUT-foci number and intensity is expressed as percentage of the value obtained for cells treated with vehicle only (DMSO, 0.1% final concentration), which was set as 100. Compound concentrations leading to half-maximal (IC50) inhibition of the aforementioned readout parameters were determined using standard four parameter curve fitting.

MV-4-11 cells = assay: Cell growth inhibition assay (CellTiter-Glo), MV-4-11; format: cell-based; details: Homo sapiens, MV4-11, read-out: MV-4-11 TGI
Outline: as §2

His-Brd3(20-477) = His-Brd3(20-477) (Homo sapiens (Human), UniProt Q15059); assay: TR-FRET in-vitro binding assay for BRD3; details: biochemical
His-Brd3(20-477), sequence (Q15059 20-477): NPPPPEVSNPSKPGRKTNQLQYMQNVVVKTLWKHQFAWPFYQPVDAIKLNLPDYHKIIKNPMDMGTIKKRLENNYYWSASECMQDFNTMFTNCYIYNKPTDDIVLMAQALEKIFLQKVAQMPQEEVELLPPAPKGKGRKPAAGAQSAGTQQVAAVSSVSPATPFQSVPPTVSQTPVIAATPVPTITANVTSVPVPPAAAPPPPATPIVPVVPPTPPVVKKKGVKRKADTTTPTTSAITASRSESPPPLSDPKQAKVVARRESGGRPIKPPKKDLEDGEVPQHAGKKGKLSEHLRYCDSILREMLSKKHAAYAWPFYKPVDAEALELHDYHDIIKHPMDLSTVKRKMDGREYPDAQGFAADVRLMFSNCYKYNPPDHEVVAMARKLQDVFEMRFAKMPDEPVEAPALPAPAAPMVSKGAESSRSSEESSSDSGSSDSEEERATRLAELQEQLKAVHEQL
Outline: as §1

THP-1 cells = assay: Cell growth inhibition assay (CellTiter-Glo), THP-1; format: cell-based; details: Homo sapiens, read-out: THP-1 TGI
Outline: as §2

His-Brd2(60-472) = His-Brd2(60-472) (Homo sapiens (Human), UniProt P25440); assay: TR-FRET in-vitro binding assay for BRD2; details: biochemical
His-Brd2(60-472), sequence (P25440 60-472): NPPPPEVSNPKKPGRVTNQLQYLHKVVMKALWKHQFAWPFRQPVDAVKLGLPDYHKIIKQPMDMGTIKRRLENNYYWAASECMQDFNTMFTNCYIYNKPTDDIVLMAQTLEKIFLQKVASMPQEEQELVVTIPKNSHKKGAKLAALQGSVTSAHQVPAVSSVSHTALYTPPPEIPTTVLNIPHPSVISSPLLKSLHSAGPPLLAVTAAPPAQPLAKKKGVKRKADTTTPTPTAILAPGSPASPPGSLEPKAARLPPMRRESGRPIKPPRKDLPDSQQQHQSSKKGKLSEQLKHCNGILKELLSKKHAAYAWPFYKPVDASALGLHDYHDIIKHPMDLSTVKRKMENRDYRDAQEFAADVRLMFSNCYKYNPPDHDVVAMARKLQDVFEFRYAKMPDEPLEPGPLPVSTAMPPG
Outline: as §1

[2] = target: His-CREBBP (1081-1197) bromodomain (Homo sapiens (Human), UniProt Q92793); assay: AlphaScreen in-vitro binding assay for CREBBP; details: biochemical
His-CREBBP (1081-1197) bromodomain, sequence (Q92793 1081-1197): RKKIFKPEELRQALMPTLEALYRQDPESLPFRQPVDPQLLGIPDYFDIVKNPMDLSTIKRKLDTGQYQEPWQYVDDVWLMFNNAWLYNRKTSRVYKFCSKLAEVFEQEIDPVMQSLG
Outline: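 Ni-chelate acceptor and streptavidin donor beads (45 µg/mL each, in 50 mM HEPES pH 7.5, 150 mM NaCl, 0.02% BSA) were then added for 60 min at room temperature. IC50 came from 8-point non-linear regression.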

| pIC50 (His-Brd4(44-477)) | pIC50 [1] | pIC50 (His-Brd3(20-477)) | pIC50 (His-Brd2(60-472)) | pIC50 [2] | SMILES | IC (total growth inhibition) (K-562 cells) [µM] | IC (total growth inhibition) (MV-4-11 cells) [µM] | IC (total growth inhibition) (THP-1 cells) [µM] |
| --- | --- | --- | --- | --- | --- | --- | --- | --- |
| 6.89 | 7.14 | 6.92 | 6.85 | – | CCc1nn(C(=O)N(C)C)c2c1C(c1ccc(Cl)cc1)N(c1cc(C)c(=O)n(C)c1)C2=O (stereo not shown) [Example 147, 4-(4-chlorophenyl)-5-(1,5-dimethyl-6-oxo-1,6-dihydropyridin-3-yl)-3-ethyl-N,N-dimethyl-6-oxo-5,6-dihydropyrrolo[3,4-c]pyrazole-1(4H)-carboxamide] | > 10 | 0.1 | 0.365 |
| 6.82 | 7.04 | 6.70 | 6.72 | – | CNC(=O)n1nc2c(c1C)C(c1ccc(Cl)cc1)N(c1cc(C)c3nnc(C)n3c1)C2=O (stereo not shown) [Example 146, 4-(4-chlorophenyl)-5-(3,8-dimethyl-[1,2,4]triazolo[4,3-a]pyridin-6-yl)-N,3-dimethyl-6-oxo-5,6-dihydropyrrolo[3,4-c]pyrazole-2(4H)-carboxamide] | > 10 | 0.0546 | 0.283 |
| 7.10 | 7.19 | 7.10 | – | – | Cc1cc(N2C(=O)c3c(c(CO)nn3C3CC3)C2c2ccc(Cl)cc2)cn(C)c1=O (stereo not shown) [Example 133, 4-(4-chlorophenyl)-1-cyclopropyl-5-(1,5-dimethyl-6-oxo-1,6-dihydropyridin-3-yl)-3-(hydroxymethyl)-4,5-dihydropyrrolo[3,4-c]pyrazol-6(1H)-one] | > 10 | 0.102 | 0.327 |
| – | 6.13 | – | – | – | Cc1nn(C2CC2)c2c1C(c1cccc(OC(F)(F)F)c1)N(c1cc(C)c(=O)n(C)c1)C2=O (stereo not shown) [Example 91, 1-cyclopropyl-5-(1,5-dimethyl-6-oxo-1,6-dihydropyridin-3-yl)-3-methyl-4-(3-(trifluoromethoxy)phenyl)-4,5-dihydropyrrolo[3,4-c]pyrazol-6(1H)-one] | > 10 | 0.978 | 1.44 |
| 4.85 | 5.05 | – | – | – | Cc1nn(C2CC2)c2c1[C@H](c1ccc(Cl)cc1)N(c1cc(C)c3nnc(C)n3n1)C2=O [Example 123, (S)-4-(4-chlorophenyl)-1-cyclopropyl-5-(3,8-dimethyl-[1,2,4]triazolo[4,3-b]pyridazin-6-yl)-3-methyl-4,5-dihydropyrrolo[3,4-c]pyrazol-6(1H)-one] | > 10 | 5.81 | > 10 |
| – | 7.42 | – | – | – | CCc1nn(CCOC)c2c1C(c1ccc(Cl)cc1)N(c1cc(C)c(=O)n(C)c1)C2=O (stereo not shown) [Example 86, 4-(4-chlorophenyl)-5-(1,5-dimethyl-6-oxo-1,6-dihydropyridin-3-yl)-3-ethyl-1-(2-methoxyethyl)-4,5-dihydropyrrolo[3,4-c]pyrazol-6(1H)-one] | > 10 | 0.0548 | 0.123 |
| 6.54 | 6.07 | 6.62 | – | – | Cc1nn(C2CNC2)c2c1C(c1ccc(Cl)cc1)N(c1cc(C)c(=O)n(C)c1)C2=O (stereo not shown) [Example 138, 1-(azetidin-3-yl)-4-(4-chlorophenyl)-5-(1,5-dimethyl-6-oxo-1,6-dihydropyridin-3-yl)-3-methyl-4,5-dihydropyrrolo[3,4-c]pyrazol-6(1H)-one] | > 10 | 0.353 | 1.51 |
| 6.89 | – | 6.96 | 6.74 | 6.40 | Cc1cc(N2C(=O)c3nn(C(C)C)c(C)c3C2c2ccc(Cl)cc2)cn(C)c1=O (stereo not shown) [Example 64, 4-(4-chlorophenyl)-5-(1,5-dimethyl-6-oxo-1,6-dihydropyridin-3-yl)-2-isopropyl-3-methyl-4,5-dihydropyrrolo[3,4-c]pyrazol-6(2H)-one] | > 10 | 0.0423 | 0.113 |
| 7.28 | – | 7.24 | 7.39 | 5.23 | COc1ncccc1-n1nc(C)c2c1C(=O)N(c1cc(C)c(=O)n(C)c1)C2c1ccc(Cl)cc1 (stereo not shown) [Example 71, 4-(4-chlorophenyl)-5-(1,5-dimethyl-6-oxo-1,6-dihydropyridin-3-yl)-1-(2-methoxypyridin-3-yl)-3-methyl-4,5-dihydropyrrolo[3,4-c]pyrazol-6(1H)-one] | > 10 | 0.103 | 0.178 |
| 6.82 | 6.16 | – | 6.68 | – | Cc1cc(N2C(=O)c3n[nH]cc3C2c2ccc(Cl)cc2)cn(C)c1=O (stereo not shown) [Example 26, 4-(4-chlorophenyl)-5-(1,5-dimethyl-6-oxo-1,6-dihydropyridin-3-yl)-4,5-dihydropyrrolo[3,4-c]pyrazol-6(2H)-one] | > 10 | 0.317 | 0.772 |
| 7.39 | – | 7.38 | 7.41 | 5.43 | COCc1nn(C2CC2)c2c1[C@@H](c1ccc(Cl)cc1)N(c1cc(C)c(=O)n(C)c1)C2=O [Example 162, (R)-4-(4-chlorophenyl)-1-cyclopropyl-5-(1,5-dimethyl-6-oxo-1,6-dihydropyridin-3-yl)-3-(methoxymethyl)-4,5-dihydropyrrolo[3,4-c]pyrazol-6(1H)-one] | > 10 | 0.0903 | 0.173 |
| 6.57 | – | 6.55 | 6.68 | 5.82 | COc1ncc(-n2nc3c(c2C(F)(F)F)C(c2ccc(Cl)cc2)N(c2cc(Cl)c(=O)n(C)c2)C3=O)c(OC)n1 (stereo not shown) [Example 47, 5-(5-chloro-1-methyl-6-oxo-1,6-dihydropyridin-3-yl)-4-(4-chlorophenyl)-2-(2,4-dimethoxypyrimidin-5-yl)-3-(trifluoromethyl)-4,5-dihydropyrrolo[3,4-c]pyrazol-6(2H)-one] | > 10 | 0.158 | 0.755 |
| 7.23 | – | 7.52 | 7.15 | 4.96 | Cc1nn(C(C)C)c2c1C(c1ccc(Cl)cc1F)N(c1cc(C)c3nnc(C)n3c1)C2=O (stereo not shown) [Example 168, 4-(4-chloro-2-fluorophenyl)-5-(3,8-dimethyl-[1,2,4]triazolo[4,3-a]pyridin-6-yl)-1-isopropyl-3-methyl-4,5-dihydropyrrolo[3,4-c]pyrazol-6(1H)-one] | > 10 | 0.0403 | 0.0949 |
| 7.62 | – | 7.55 | 7.37 | 5.55 | COc1ncc(-n2nc3c(c2C(C)C)C(c2ccc(Cl)cc2)N(c2cc(C)c4nnc(C)n4c2)C3=O)c(OC)n1 (stereo not shown) [Example 67, 4-(4-chlorophenyl)-2-(2,4-dimethoxypyrimidin-5-yl)-5-(3,8-dimethyl-[1,2,4]triazolo-[4,3-a]pyridin-6-yl)-3-isopropyl-4,5-dihydropyrrolo[3,4-c]pyrazol-6(2H)-one] | > 10 | 0.0196 | 0.0385 |
| 7.05 | – | 7.06 | 6.89 | 5.60 | Cc1nn(C(C)C)c2c1C(c1ccc(Cl)cc1)N(c1cc(C)c(=O)n(C)c1)C2=O (stereo not shown) [Example 63, 4-(4-chlorophenyl)-5-(1,5-dimethyl-6-oxo-1,6-dihydropyridin-3-yl)-1-isopropyl-3-methyl-4,5-dihydropyrrolo[3,4-c]pyrazol-6(1H)-one] | > 10 | 0.0509 | 0.115 |
